This is an account of results in patent publication US7285556B2, “Thienopyrimidine-based inhibitors of the src family” (Board of Regents, The University of Texas Systems, priority 2000, dated 2007).

Like-named read-outs stand apart in the source and are kept apart here.

Assay [1] concerns osteoclastic bone resorption. Particulars: Rodan and Martin, 2000; cited from earlier work.
Assay [2] has as its target T1, Recombinant human Src (Homo sapiens, UniProt P12931).
T1 construct: made in house; host or cells: baculovirus-insect cell system
The experiment in a line: Src tyrosine kinase activity, poly E4Y and 32P-ATP. The class given is biochemical. Summed up: (§1)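 Recombinant GST-Csk (E. coli) or baculovirus-expressed human Src assayed on poly E4Y in 0.15 M EPPS-NaOH pH 8.0, 6 mM MgCl2, 0.2 mM γ32P-ATP, 10% glycerol, 0.1% Triton X-100. Read-out is 32P incorporation into poly E4Y; for ATP variation (0–250 μM), poly E4Y held at 150 μg/ml.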

Assay [3] addresses T2, Csk (Homo sapiens, UniProt P41240).
T2 construct: GST (glutathione-S-transferase) (N); made in house; host or cells: E. coli (pGEX vector)
The experiment in a line: Csk tyrosine kinase activity, poly E4Y and 32P-ATP. The assay is classed as biochemical. The following applies: screening assay, 50 μg/ml poly E4Y, 0.2 mM 32P-ATP. Summed up: as §1

For assay [4], the target named is T3, N12 neuronal Src variant (Homo sapiens, UniProt P12931).
T3 construct: made in house
T3 sequence (P12931 1-542 isoform P12931-2): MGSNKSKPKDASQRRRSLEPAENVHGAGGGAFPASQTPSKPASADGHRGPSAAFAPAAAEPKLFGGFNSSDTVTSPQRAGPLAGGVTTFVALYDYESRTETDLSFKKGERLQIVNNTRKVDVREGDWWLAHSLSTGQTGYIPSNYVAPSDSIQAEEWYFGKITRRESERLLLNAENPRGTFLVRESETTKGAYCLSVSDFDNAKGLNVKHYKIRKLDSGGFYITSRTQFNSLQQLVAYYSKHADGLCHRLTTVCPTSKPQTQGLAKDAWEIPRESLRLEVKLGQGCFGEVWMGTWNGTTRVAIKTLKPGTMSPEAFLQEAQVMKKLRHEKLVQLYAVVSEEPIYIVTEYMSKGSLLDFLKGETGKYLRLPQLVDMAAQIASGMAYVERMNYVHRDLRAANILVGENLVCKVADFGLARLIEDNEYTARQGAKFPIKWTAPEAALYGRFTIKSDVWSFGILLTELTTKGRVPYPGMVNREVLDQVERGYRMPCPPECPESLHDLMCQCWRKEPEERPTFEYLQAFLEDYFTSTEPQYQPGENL
Briefly: Testing against neuronal Src variant N12. The assay is classed as biochemical. The following applies: Table 5. Here is the method:
(§2) The tyrosine kinase activity of Src, Csk and FGFr was determined using poly E4Y and ^32P-ATP. Briefly, enzymes were assayed in a reaction mixture consisting of 0.15 M EPPS-NaOH (pH 8.0) with 6 mM MgCl2, 0.2 mM γ^32P-ATP (0.2-0.4 mCi/μmol), 10% glycerol, 0.1% Triton X-100, and poly E4Y. Poly E4Y is a synthetic peptide whose phosphorylation is measured in this assay by the addition of the radioactively labeled phosphate from the ATP (Budde et al., 1995). […] When ATP was varied (0, 50, 100 and 250 μM), poly E4Y was kept constant at 150 μg/ml.
(§3) Thienopyrimidine-based compounds were also tested against neuronal Src variants (Table 5).

Assay [5] addresses T4, N23 neuronal Src variant (Homo sapiens, UniProt P12931).
T4 construct: made in house
The experiment in a line: Testing against neuronal Src variant N23. The class given is biochemical. Particulars: Table 5. The protocol:
as §2, §3

The subject of assay [6] is colon adenocarcinoma cell line, HT29. Briefly: MTT reduction assay, in vitro drug cytotoxicity. The assay is classed as cell-based. Particulars: Homo sapiens, HT-29, 72 hours incubation, read-out: IC50, HT-29 cells. Here is the method:
Compounds synthesized using the methods described above were tested using a standard MTT assay (Green et al., 1984) against a colon adenocarcinoma cell line, HT29. A human ovarian cancer cell line, SKOv-3 may also be used. The use of an MTT assay using these cells is recognized as an accepted assay for anti-tumor activity by those in the field. The in vitro activity of Src inhibitors of the present invention against diseases other than cancer may be assayed by methods known to those of skill in the art.
In vitro drug cytotoxicities against a colon adenocarcinoma cell line, HT29 was assessed by using the MTT reduction assay, as previously reported (Green et al., 1984). A human ovarian cancer cell line, SKOv-3 may also be used. The MTT dye was obtained from Sigma Chemical Co. (St. Louis, Mo.). The drugs were dissolved in DMSO:PEG 300 (1:1). Neither DMSO or PEG 300 are toxic to cells at a concentration of 31.6 μg/ml. […] The optical density of each well was then measured with a microplate spectrophotometer at a wavelength of 570 nm with a reference cell at 650 nm. The percent cell viability was calculated by the following equation: % cell viability=(OD treated wells/OD control wells)×100
where OD is the mean optical density from four determinations. The percent cell viability values were plotted against the drug concentrations used, and the IC50 was calculated from the curve.

The mark [7] stands for this setting: Table 2, read-out: Src IC50 (especially good inhibitors of Src).
The mark [8] stands for this setting: Table 5, N6 = Src, read-out: N6(Src) IC50.
The mark [9] stands for this setting: read-out: IC50 (preferred compounds for treatment of Src family-related disease).

T4 sequence (P12931 1-553 isoform P12931-3): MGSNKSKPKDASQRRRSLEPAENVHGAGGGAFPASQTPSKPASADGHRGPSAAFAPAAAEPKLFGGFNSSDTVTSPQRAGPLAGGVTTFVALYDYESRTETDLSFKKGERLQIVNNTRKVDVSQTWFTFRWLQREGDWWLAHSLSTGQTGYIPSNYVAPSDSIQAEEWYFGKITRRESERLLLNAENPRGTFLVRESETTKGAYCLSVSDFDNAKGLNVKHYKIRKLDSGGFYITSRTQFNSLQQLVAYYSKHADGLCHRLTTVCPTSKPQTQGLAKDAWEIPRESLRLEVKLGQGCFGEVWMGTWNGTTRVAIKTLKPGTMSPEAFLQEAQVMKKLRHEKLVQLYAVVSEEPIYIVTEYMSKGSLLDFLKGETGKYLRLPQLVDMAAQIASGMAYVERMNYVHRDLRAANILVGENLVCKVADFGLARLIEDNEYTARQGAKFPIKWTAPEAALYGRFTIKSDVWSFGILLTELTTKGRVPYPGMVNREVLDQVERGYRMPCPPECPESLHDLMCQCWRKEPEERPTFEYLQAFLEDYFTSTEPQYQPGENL
T1 sequence (P12931 whole entry): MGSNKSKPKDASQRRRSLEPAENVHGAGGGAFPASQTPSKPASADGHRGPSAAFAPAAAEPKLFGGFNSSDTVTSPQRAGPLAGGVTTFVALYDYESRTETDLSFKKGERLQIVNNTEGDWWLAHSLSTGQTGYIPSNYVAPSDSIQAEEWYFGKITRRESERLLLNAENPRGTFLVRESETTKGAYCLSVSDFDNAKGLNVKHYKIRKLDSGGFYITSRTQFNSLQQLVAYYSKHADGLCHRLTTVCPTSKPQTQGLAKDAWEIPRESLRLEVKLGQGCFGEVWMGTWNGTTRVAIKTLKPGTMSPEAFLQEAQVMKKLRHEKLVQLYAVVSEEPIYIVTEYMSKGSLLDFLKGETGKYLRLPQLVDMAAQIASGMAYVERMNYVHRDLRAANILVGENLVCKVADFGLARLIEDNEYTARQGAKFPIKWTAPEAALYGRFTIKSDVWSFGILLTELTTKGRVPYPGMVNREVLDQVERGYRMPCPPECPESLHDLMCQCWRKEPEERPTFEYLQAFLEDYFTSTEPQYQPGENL
T2 sequence (P41240 whole entry, species assumed): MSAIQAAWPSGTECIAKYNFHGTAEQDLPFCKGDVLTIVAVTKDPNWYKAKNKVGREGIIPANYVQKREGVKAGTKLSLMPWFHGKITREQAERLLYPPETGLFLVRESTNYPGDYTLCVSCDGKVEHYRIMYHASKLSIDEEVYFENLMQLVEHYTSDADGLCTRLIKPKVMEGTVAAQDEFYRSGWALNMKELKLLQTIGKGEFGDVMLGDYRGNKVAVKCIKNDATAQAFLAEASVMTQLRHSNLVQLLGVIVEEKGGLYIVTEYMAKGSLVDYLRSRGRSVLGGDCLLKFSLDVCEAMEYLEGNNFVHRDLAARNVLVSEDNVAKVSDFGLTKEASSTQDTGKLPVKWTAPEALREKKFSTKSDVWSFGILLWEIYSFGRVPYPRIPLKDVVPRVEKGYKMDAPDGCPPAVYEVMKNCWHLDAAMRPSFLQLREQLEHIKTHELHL

For `CO[C@H]1[C@@H](OC)C[C@H](C)[C@@H](OC)C2=CC(=O)C=C(NC(=O)/C(C)=C/C=C\[C@H](OC)[C@@H](OC(N)=O)/C(C)=C/[C@@H]1C)C2=O` [Herbimycin A], the “osteoclastic bone resorption in vivo” value in assay [1] was “inhibits osteoclastic bone resorption”.
In the case of `C(=NNc1ncnc2cc(-c3ccccc3)sc12)c1cccnc1` [Compound 199, 3-Pyridinecarboxaldehyde(6-phenylthieno[3,2-d]pyrimidin-4-yl)hydrazone], the IC50 was at most 2000 nM in assay [2] (setting [7]); 150 nM in assay [2] (setting [8]); under 2000 nM in assay [2] (setting [9]); over 151000 nM in assay [3]; 230 nM in assay [4]; 120 nM in assay [5].
As for `Cc1csc2c(NN=Cc3cccs3)ncnc12` [Compound 29, 2-Thiophenecarboxaldehyde(7-methylthieno[3,2-d]pyrimidin-4-yl)hydrazone], the IC50 is at most 2000 nM in assay [2] (setting [7]); 950 nM in assay [2] (setting [8]); under 2000 nM in assay [2] (setting [9]); over 182000 nM in assay [3]; 1170 nM in assay [4]; 840 nM in assay [5].
With `Cc1csc2c(NN=Cc3cccnc3)ncnc12` [Compound 27, 3-Pyridinecarboxaldehyde(7-methylthieno[3,2-d]pyrimidin-4-yl)hydrazone], the 50% inhibitory concentration (IC50) in assay [2] (setting [7]) was at most 2000 nM; in assay [2] (setting [8]) it was 370 nM; in assay [2] (setting [9]), under 2000 nM; in assay [4] it was 590 nM; in assay [5] it was 280 nM; in assay [6] it was 13000 nM.
